Data as given in US6489118B2, “Allergenic proteins and peptides from dog dander and uses therefor” (ImmuLogic Pharmaceutical Corporation, priority 1992, dated 2002).

Legend:
[1] = test system: human T cell lines primed with recombinant Can f I; assay: Secondary human T cell proliferation assay (3H thymidine incorporation); assay type: cell-based; conditions: for percentage of positive responders (T cell stimulation index of at least two): tested dog allergic individuals
From the text: In one embodiment, peptides which have Can f I or Can f II T cell stimulating activity (i.e., the peptide comprises at least one T cell epitope) can be identified using an algorithm which predicts the presence of T cell epitopes in a protein sequence, such as the algorithm described by Hill et al., Journal of Immunology, 147:189-197 (1991). The algorithm of Hill et al. predicts the location of T cell epitopes in a protein by the presence of certain patterns within the sequence which are likely to bind MHC and therefore may contain T cell epitopes. Based on the Hill et al. algorithm, two 13 amino acid peptides (discussed in Example 10) have been identified and produced synthetically. Such peptides were tested for T cell activity as described above (e.g., by measuring cellular uptake of tritiated thymidine). Specifically, in Example 10, human T cell stimulating activity was tested by culturing T cells obtained from an individual sensitive to Can f I (i.e., an individual who has an IgE mediated immune response to Can f I) with a peptide derived from Can f I and proliferation of T cells in response to the peptide was determined, e.g., by measuring cellular uptake of tritiated thymidine. Stimulation indices for responses by T cells to peptides were calculated as the maximum CPM in response to a peptide divided by the control CPM. A stimulation index (S.I.) equal to or greater than two times the background level was considered “positive”. Positive results were used to calculate the mean stimulation index for each peptide for the group of patients tested (See FIG. 25). Preferred peptides of this invention comprise at least one T cell epitope and have a mean T cell stimulation index of greater than or equal to 2.0. A peptide having a mean T cell stimulation index of greater than or equal to 2.0 in a significant number of dog dander allergen sensitive patients tested is considered useful as a therapeutic agent. Preferred peptides have a mean T cell stimulation index of at least 2.5, more preferably at least 3.0, more preferably at least 3.5, more preferably at least 4.0, more preferably at least 5.0 and most preferably at least about 6. For example, peptides having a Can f I activity and having a mean T cell stimulation index of at least 5, as indicated by data shown in FIG. 25, include Construct 1 (SEQ ID NO: 105), Construct 2 (SEQ ID NO: 106), and Construct 3 (SEQ ID NO:107). T cell epitopes can also be predicted and determined as described above for peptides derived from Can f II.
In addition, preferred peptides have a positivity index (P.I.) of at least about 60, more preferably about 100, more preferably at least about 200 and most preferably at least about 300. The positivity index for a peptide is determined by multiplying the mean T cell stimulation index by the percent of individuals, in a population of individuals sensitive to dog dander allergens (e.g., preferably a population of at least 12 individuals, more preferably a population of at least 30 individuals or more), who have a T cell stimulation index to such peptide of at least 2.0. Thus, the positivity index represents both the strength of a T cell response to a peptide (S.I.) and the frequency of a T cell response to a peptide in a population of individuals sensitive to dog dander allergens.
In order to perform in vitro assays of human T cell proliferative response to Can f I and the five Can f I peptides described above, whole blood obtained from subjects allergic to Can f I in a skin prick test was passed through a Lymphocyte Separation Media (LSM) to remove platelets, red blood cells and granulocytes. The resulting peripheral blood mononuclear cells (PBMC) were stimulated with 50 μg/ml of recombinant Can f I produced as described in Example 2 for 6 days in RPMI 1640 medium supplemented with 5% heat inactivated human AB serum, 2 mM L-glutamine,10 mM HEPES, 50 μM 2-mercapto-ethanol and 100 U/ml penicillin and streptomycin. […]

human IgE [2] = assay: Western blot of protein preparations probed with patient plasma IgE; assay type: binding; conditions: plasma of dog allergic patient #901, 1:20 dilution; 5 μg/lane
Experimental: Western Blot analysis of four different protein preparations as potential sources Can f I was performed. The four different prepparations used for Western blotting were: dog hair extract, dog saliva, bacterially expressed rCan f I (used for the ELISA) and rCan f I as expressed in a mammalian cell culture system. These preparations were loaded on a 15% acrylamide SDS-PAGE (lanes 1-4, respectively) at 5 μg/lane. The protein concentrations were based on the Bicinchoninic acid (BCA) assay (Pierce, Rockford, Ill.). Following electrophoresis, the proteins were transferred to nitrocellulose and stained with India Ink. The nitrocellulose sections were blocked by incubation in Tween solution with 1% milk/1% BSA for 30 minutes room temperature, then probed with patient #901 plasma or negative control patient #250 at a 1:20 dilution in tween mild solution. This first antibody incubation was carried out overnight at room temperature. Biotinylated goat anti-human IgE (KPL) was used as the second antibody at a 1:5000 dilution for a two hour incubation. Streptavidin-HRPO (1:20,000 dilution) and the ECL Western Blot Detection system (Amersham, Arlington Heights, Ill.) were used for detection by chemiluminescence. A 20 second exposure was performed and the film developed. The results from this assay show no recognition of the protein preparations by patient #250 IgE. […]

human IgE [3] = assay: Direct binding of human IgE to recombinant Can f I by ELISA
Experimental: An ELISA plate (IMMULON II Dynatech, Chantilly, Va.) was coated with bacterially expressed recombinant Can f I, (rCan f I) at 0.5 μg/well in PBS-Tween and incubated overnight at 4° C. The coating antigen was removed and the wells were blocked with 0.5% gelatin in PBS, 200 μl/well for two hours at room temperature. Plasma from a skin test positive dog allergic patient, #901, was serially diluted with PBS-Tween and 100 μl was added per well and incubated overnight at 4° C. (the plasma dilutions were tested in duplicate). The second antibody (biotinylated goat anti-human IgE 1:1000, Kirkegaard & Perry Laboratories) was added at 100 μl/well for one hour at room temperature. This solution was removed and streptavidin-HRPO at 1:10,000, (Southern Biotecnology Associates, Inc. Birmingham, Ala.) was added for one hour at room temperature. TMB Membrane Peroxidase Substrate system (Kirkegaard & Perry Laboratories) was freshly mixed and added at 100 μl. The color was allowed to develop for 2-5 minutes. The reaction was stopped by the addition of 100 μl/well of 1M phosphoric acid. The plate was read on a Mircoplate EL 310 Autoreader (Biotek Instruments, Winooski, Vt.) with a 450 nm filter. The absorbance levels of duplicate wells were averaged. […] A known negative patient (#250) was also tested and shown to be negative by this assay.

human IgE [4] = assay: Direct binding ELISA of human IgE to native and recombinant Can f II
Experimental: Plasma samples from 14 dog-allergic patients (skin test 4+) were assayed for IgE binding to native Can f II and rCan f II. An ELISA plate (Immulon II Dynatech, Chantilly, Va.) was coated with native and bacterially expressed recombinant Can f II at 0.5 μg/well in PBS-Tween and incubated overnight at 4° C. The coating antigen was removed and the wells were blocked with 0.5% gelatin in PBS, 200 μl/well for two hours at room temperature. Binding of human IgE to the coating antigen was detected using biotinylated goat-anti-human IgE, streptavidin linked to peroxidase and TMB substrate. Reactions were read on a plate reader at 450 nm (A450). Of 14 plasma samples tested for IgE to native Can f II, 5 contained detectable antibody binding (FIG. 22A), with plasma from patients #901 and #227 containg the highest levels. Similarly, of 23 plasma samples tested for IgE to recombinant, bacterially expressed Can f II, several contained detectable antibody binding (FIGS. 22B and C).

[5] = test system: IgE binding to dog dander extracts; conditions: RAST analysis; cited from earlier work
[6] = test system: IgE of dog allergic patients; conditions: purified allergen; cited from earlier work

With “A0095: 13 amino acid synthetic peptide, Can f I amino acids 7 through 19 (SEQ ID NO:108) (GKWYLKAMTADQE) [Construct A0095]” the “positivity index (mean S.I. x percent positive responders)” value ([1]; FIG. 10) was 129, the “mean T cell stimulation index (S.I.)” value ([1]; mean of positive responses (S.I. >= 2), T cell lines from dog allergic patients primed with rCan f I, FIG. 25) was 3.0 and the “percentage of positive responders (T cell stimulation index of at least two)” value [1] was 43%.

With “A0096: 13 amino acid synthetic peptide, Can f I amino acids 42 through 54 (SEQ ID NO:109) (AKITMLTNGQCQN) [Construct A0096]” the “percentage of positive responders (T cell stimulation index of at least two)” value [1] was 43%.

For “Construct 1: recombinant fragment of Can f I, amino acids 1 through 65 (SEQ ID NO: 105), expressed in E. coli with His6”, the “percentage of positive responders (T cell stimulation index of at least two)” value [1] was 64%.

With “Construct 2: recombinant fragment of Can f I, amino acids 56 through 108 (SEQ ID NO: 106), expressed in E. coli (TVVLHKTSEPGKYTAYEGQRVVFIQPSPVRDHYILYCEGELHGRQIRMAKLLG)” the “percentage of positive responders (T cell stimulation index of at least two)” value [1] was 73%.

With “Construct 3: recombinant fragment of Can f I, amino acids 90 through 148 (SEQ ID NO: 107), expressed in E. coli” the “percentage of positive responders (T cell stimulation index of at least two)” value [1] was 82%.

With “mammalian expressed rCan f I: recombinant Can f I expressed in a mammalian cell culture system (NIH 3T3), COOH-terminal His6” the “IgE binding on Western blot” value (human IgE [2]) was “extremely faint”.

In the case of “rCan f I: bacterially expressed recombinant Can f I dog allergen with His6 reporter group”, the “percentage of positive responders (T cell stimulation index of at least two)” value [1] is reported as 89%, the “IgE binding level relative to background” value (human IgE [3]; plasma of dog allergic patient #901 at 1/162 dilution, antigen 0.5 μg/well) is reported as “two-fold above background” and the “IgE binding, negative control patient” value (human IgE [3]; plasma of known negative patient #250) is reported as “negative”. The “IgE binding on Western blot” value (human IgE [2]) was “distinct binding”.

B1: Can f II: minor dog dander allergen, affinity purified native protein (de Groot et al.) (protein)
chain: EGNHEEPQGGLEELSGRWHSVALASNKSDLIKPWGHFRVFIHSMSAKDGNLHGDILIPQDGQCEKVSLTAFKTATSNKFDLEYWGHNDLYLAEVDPKSYLILYMINQYNDDTSLVAHLMVRDLSRQQDFLPAFESVCEDIGLHKDQIVVLSDDDRCQGSRD
In the case of B1, the “number of plasma samples with detectable IgE antibody binding” value (human IgE [4]; of 14 plasma samples from dog-allergic patients (skin test 4+), FIG. 22A) is listed as 5, the “competition with the IgE directed against dog dander extract” value [5] is listed as 23% and the “dog allergic patients whose IgE reacts with the allergen” value [6] is listed as 66%.

B2: recombinant, bacterially expressed Can f II: bacterially expressed recombinant Can f II with His6 reporter group (protein)
chain: EGNHEEPQGGLEELSGRWHSVALASNKSDLIKPWGHFRVFIHSMSAKDGNLHGDILIPQDGQCEKVSLTAFKTATSNKFDLEYWGHNDLYLAEVDPKSYLILYMINQYNDDTSLVAHLMVRDLSRQQDFLPAFESVCEDIGLHKDQIVVLSDDDRCQGSRD
modifications: left off: small tags and cut ends
notes: bacterially expressed recombinant Can f II with His6 reporter group
With B2 the “number of plasma samples with detectable IgE antibody binding” value (human IgE [4]; of 23 plasma samples, FIGS. 22B and C) was “several”.

B3: Can f I: major dog allergen of Canis familiaris; mature protein of SEQ ID NO: 2; immunoaffinity purified in cited work (protein)
chain: MKTLLLTIGFSLIAILQAQDTPALGKDTVAVSGKWYLKAMTADQEVPEKPDSVTPMILKAQKGGNLEAKITMLTNGQCQNITVVLHKTSEPGKYTAYEGQRVVFIQPSPVRDHYILYCEGELHGRQIRMAKLLGRDPEQSQEALEDFREFSRAKGLNQEILELAQSETCSPGGQ
For B3, the “depletion of IgE binding to dog dander extracts” value [5] is given as 50-70%.
